The source of these data is US8183234B2, “Tricyclic guanidine derivatives as sodium-proton exchange inhibitors” (Piramal Life Sciences Limited, priority 2004, dated 2012).

Counter-ions that a name gives are not always drawn.

T1 sequence (P19634 whole entry, canonical isoform): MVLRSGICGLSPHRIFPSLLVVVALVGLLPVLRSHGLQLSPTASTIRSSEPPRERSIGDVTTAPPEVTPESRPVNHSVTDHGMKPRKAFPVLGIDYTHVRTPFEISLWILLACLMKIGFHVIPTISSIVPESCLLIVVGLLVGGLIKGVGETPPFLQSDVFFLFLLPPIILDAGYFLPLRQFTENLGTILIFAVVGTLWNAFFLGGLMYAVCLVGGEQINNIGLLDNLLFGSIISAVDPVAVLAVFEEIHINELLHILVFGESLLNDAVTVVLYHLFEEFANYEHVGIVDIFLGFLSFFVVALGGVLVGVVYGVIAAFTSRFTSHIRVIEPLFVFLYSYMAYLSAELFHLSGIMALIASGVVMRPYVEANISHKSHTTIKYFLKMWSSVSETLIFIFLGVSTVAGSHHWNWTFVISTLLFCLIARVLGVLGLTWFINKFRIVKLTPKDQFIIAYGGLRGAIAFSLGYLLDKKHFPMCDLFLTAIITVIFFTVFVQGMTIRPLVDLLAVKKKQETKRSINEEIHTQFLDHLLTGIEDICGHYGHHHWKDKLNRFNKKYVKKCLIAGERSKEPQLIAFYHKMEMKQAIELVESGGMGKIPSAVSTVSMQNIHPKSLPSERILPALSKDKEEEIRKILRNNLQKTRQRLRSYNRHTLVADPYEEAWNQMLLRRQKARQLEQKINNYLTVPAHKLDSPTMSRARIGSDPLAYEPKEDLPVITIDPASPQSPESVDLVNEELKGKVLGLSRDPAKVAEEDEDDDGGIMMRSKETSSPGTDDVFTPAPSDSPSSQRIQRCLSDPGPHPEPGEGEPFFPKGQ

This experiment has as its target T1, NHE-1 (Homo sapiens, UniProt P19634).
T1 construct: NHE-1 isoform which is predominantly present in human platelets; endogenous in cells; host or cells: human platelets (platelet rich plasma from blood of healthy volunteers)
Description: Primary screening assay in human platelets (acidified human platelet swelling assay). It is filed as cell-based. Conditions: concentration required to inhibit 50% of NHE-1 activity in isolated human platelets; mean of three readings, PRP from three donors. How it is done: Experiments on inhibition of NHE in human platelets are based on those published in (Cardiovasc. Res. 29: 260-268, (1995), J. Med. Chem. 41, 3736-3747, (1998)) Blood (150 mL) collected in a siliconized glass bottle from healthy volunteers was treated with aqueous acid citrate dextrose (ACD) solution (25 mL) [composition: citric acid (38 mM/L), glucose (136 mM/L) and trisodium citrate (75 mM/L)] and immediately centrifuged at 200 g for 20 min. The platelet rich plasma (PRP) was separated and a platelet count carried out using a Beckman Coulter A^c T® cell counter. The cell count was adjusted to 3×10^8 platelets/mL using platelet free plasma.
Activation of Na^+/H^+ exchanger by intracellular acidification: 150 μL of PRP was added to 750 μL of propionate buffer [composition: KCl (5 mM/L), CaCl2 (1 mM/L), MgCl2 (1 mM/L), glucose (10 mM/L), HEPES (20 mM/L), sodium propionate (140 mM/L)] of pH 6.6, in a cuvette. Optical density was recorded at 630 nm using a Shimadzu spectrophotometer (UV 1601). The micromolar concentrations of a few representative compounds required to inhibit 50% of NHE-1 activity (IC50), in isolated human platelets (acidified human platelet swelling assay) is shown in Table 2. IC50 values are the mean of three experimental readings using PRP isolated from the blood of three different donors.
As a reminder, the IC50 is the concentration at which inhibition is half-maximal. A high value points to lower potency. On to `Cc1cc(C(=O)N=C(N)N)cc2c1N(C)c1c(Cl)cccc1C(C)S2(=O)=O` (stereo not shown) [Example 194, N-(4-Chloro-5,6,11-trimethyl-10,10-dioxo-10,11-dihydro-5H-10lambda*6*-thia-5-aza-dibenzo[a.d]cycloheptene-8-carbonyl)-guanidine, methane sulfonic acid salt], for which the IC50 stood at 200 nM.

In turn, `Cc1cc2c(cc1C(=O)N=C(N)N)S(=O)(=O)Cc1ccccc1N2` [Example 183, N-(7-Methyl-10,10-dioxo-10,11-dihydro-5H-10lambda*6*-thia-5-aza-dibenzo[a.d]cycloheptene-8-carbonyl)-guanidine, methane sulfonic acid salt] showed an IC50 of 100 nM.

The molecule `Cc1cc(C(=O)N=C(N)N)cc2c1Oc1c(Cl)cc(CN)cc1CS2(=O)=O` [Example 198, N-(2-Aminomethyl-4-chloro-6-methyl-10,10-dioxo-10,11-dihydro-5-oxa-10lambda*6*-thia-dibenzo[a.d]cycloheptene-8-carbonyl)-guanidine trimesylate] had an IC50 of 30 nM.

The molecule `Cc1cc(C(=O)N=C(N)N)cc2c1Oc1c(Cl)cc(N3CCN(C4CC4)CC3=O)cc1CS2(=O)=O` [Example 58, N-[4-Chloro-2-(4-cyclopropyl-2-oxo-piperazin-1-yl)-6-methyl-10,10-dioxo-10,11-dihydro-5-oxa-10lambda*6*-thia-dibenzo[a,d]cycloheptene-8-carbonyl]-guanidine dimesylate] registered an IC50 of 87 nM.

For the molecule `Cc1cc(N)cc2c1Oc1c(Cl)cc(C(=O)N=C(N)N)cc1S(=O)(=O)C2` [Example 48, N-(2-Amino-6-chloro-4-methyl-10,10-dioxo-10,11-dihydro-5-oxa-10lambda*6*-thia-dibenzo[a,d]cycloheptene-8-carbonyl)-guanidine, methane sulfonic acid salt], inhibition was half-maximal at 40 nM (IC50).

`Cc1cc(C(=O)N=C(N)N)cc2c1Oc1c(Cl)cc(S(=O)(=O)NCc3cccnc3)cc1CS2(=O)=O` [Example 52, 4-Chloro-8-guanidinocarbonyl-6-methyl-10,10-dioxo-10,11-dihydro-5-oxa-10lambda*6*-thia-dibenzo[a,d]cycloheptene-2-sulfonic acid (pyridin-3-ylmethyl)-amide dimesylate] returned an IC50 of 80 nM. Against the preceding molecule, the IC50 is about 2-fold higher.

For `CCN(CCN1CCCC1)c1cc(Cl)c2c(c1)CS(=O)(=O)c1cc(C(=O)N=C(N)N)cc(C)c1O2` [Example 73, N-{4-Chloro-2-[ethyl-(2-pyrrolidin-1-yl-ethyl)-amino]-6-methyl-10,10-dioxo-10,11-dihydro-5-oxa-10lambda*6*-thia-dibenzo[a,d]cycloheptene-8-carbonyl}-guanidine dimesylate], half-maximal inhibition (IC50) required 32 nM.

Molecule `Cc1cc(C(=O)N=C(N)N)cc2c1Oc1c(Cl)cc(N3CCN(Cc4ccccc4)CC3)cc1CS2(=O)=O` [Example 118, N-[2-(4-Benzyl-piperazin-1-yl)-4-chloro-6-methyl-10,10-dioxo-10,11-dihydro-5-oxa-10lambda*6*-thia-dibenzo[a,d]cycloheptene-8-carbonyl]-guanidine dimesylate] returned an IC50 of 100 nM.

Take `Cc1cc2c(cc1C(=O)N=C(N)N)S(=O)(=O)Cc1ccccc1O2` [Example 27, N-(7-Methyl-10,10-dioxo-10,11-dihydro-5-oxa-10lambda*6*-thia-dibenzo[a,d]cycloheptene-8-carbonyl)-guanidine, methane sulfonic acid salt]: the IC50 amounted to 100 nM.

`Cc1cc(C(=O)N=C(N)N)cc2c1Oc1c(Cl)cc(NCCn3ccnc3)cc1CS2(=O)=O` [Example 64, N-[4-Chloro-2-(2-imidazol-1-yl-ethylamino)-6-methyl-10,10-dioxo-10,11-dihydro-5-oxa-10lambda*6*-thia-dibenzo[a,d]cycloheptene-8-carbonyl]-guanidine dimesylate]: the IC50 was 28 nM.

The molecule `NC(N)=NC(=O)c1cc(Cl)c2c(c1)S(=O)(=O)Cc1cccc(Cl)c1O2` [Example 45, 4,6-Dichloro-10,10-dioxo-10,11-dihydro-5-oxa-10lambda*6*-thia-dibenzo[a,d]cycloheptene-8-carbonylguanidine, methane sulfonic acid salt] returned an IC50 of 70 nM.

In turn, `Cc1cc(C(=O)N=C(N)N)cc2c1Oc1c(cccc1C(C)C)CS2(=O)=O` [Example 31, N-(4-Isopropyl-6-methyl-10,10-dioxo-10,11-dihydro-5-oxa-10lambda*6*-thia-dibenzo[a,d]cycloheptene-8-carbonyl)-guanidine, methane sulfonic acid salt] had an IC50 of 200 nM.

Molecule `Cc1cc(C(=O)N=C(N)N)cc2c1Oc1c(Cl)cc(N)cc1CS2(=O)=O` [Example 35, N-(2-Amino-4-chloro-6-methyl-10,10-dioxo-10,11-dihydro-5-oxa-10lambda*6*-thia-dibenzo[a,d]cycloheptene-8-carbonyl)-guanidine, methane sulfonic acid salt] registered an IC50 of 20 nM.
